# Results from patent US7732450B2, “Antifungal ketoconazole composition for topical use” (Boult Wade Tennant, priority 2000, dated 2010).
# Assay: Solubility of ketoconazole in solvent media at room temperature
# Assay type: physicochemical
# Settings: for Solubility: room temperature (21° C.)
# Experimental: The solubility of ketoconazole in each of isopropyl alcohol, water and polyethoxylated glyceryl cocoate were established at room temperature (21° C.).
# The solubility of ketoconazole in a composition of the present invention, prepared as in Example 1, containing 55% isopropyl alcohol, 35% water and 10% polyethoxylated glyceryl cocoate was also established at room temperature (21° C.).
compound,measurement,setting,value
"CC(=O)N1CCN(c2ccc(OCC3COC(Cn4ccnc4)(c4ccc(Cl)cc4Cl)O3)cc2)CC1 (centres unmarked) [ketoconazole, 1-acetyl-4-[4-[2-(2,4-dichlorophenyl)-2-imidazol-1-ylmethyl-1,3-dioxolan-4-ylmethoxy]phenyl]piperazine]",Solubility,"in composition of 55% isopropyl alcohol, 35% water and 10% polyethoxylated glyceryl cocoate",2.8 wt %
same,Solubility,in isopropyl alcohol,0.4722 wt %
same,Solubility,in polyethoxylated glyceryl cocoate,0.8682 wt %
same,Solubility,in water,0.0233 wt %
same,Solubility of ketoconazole in three-component solvent system,"ternary solvent system (water, alcohol, non-ionic surface active agent)",up to 3 wt %
